Reference: publication PMC11357990, “A first-in-class selective inhibitor of EGFR and PI3K offers a single-molecule approach to targeting adaptive resistance” (Nature Cancer, 2024)

Key:
[1] = molecular target: AR(h) (agonist radioligand) (Homo sapiens, UniProt P10275); assay: biochemical; details: read-out: Binding / ================================================= / % Inhibition of Control Specific Binding
[2] = molecular target: T1, beta 1 (h) (agonist radioligand) (Homo sapiens, UniProt P08588); assay: biochemical; details: read-out: Binding / ================================================= / % Inhibition of Control Specific Binding
T1 construct: gene ADRB1

[3] = molecular target: T2, M3 (h) (antagonist radioligand) (Homo sapiens, UniProt P20309); assay: biochemical; details: read-out: Binding / ================================================= / % Inhibition of Control Specific Binding
T2 construct: gene CHRM3

[4] = molecular target: T3, MC1 (agonist radioligand) (Mus musculus, UniProt Q01727); assay: biochemical; details: read-out: Binding / ================================================= / % Inhibition of Control Specific Binding
T3 construct: gene Mc1r

[5] = molecular target: T4, norepinephrine transporter (h) (antagonist radioligand) (Homo sapiens, UniProt P23975); assay: biochemical; details: read-out: Binding / ================================================= / % Inhibition of Control Specific Binding
T4 construct: gene SLC6A2

[6] = molecular target: T5, D2S (h) (agonist radioligand) (Homo sapiens, UniProt P14416); assay: biochemical; details: read-out: Binding / ================================================= / % Inhibition of Control Specific Binding
T5 construct: gene DRD2

[7] = molecular target: T6, kappa (h) (KOP) (agonist radioligand) (Homo sapiens, UniProt P41145); assay: biochemical; details: read-out: Binding / ================================================= / % Inhibition of Control Specific Binding
T6 construct: gene OPRK1

[8] = molecular target: T7, alpha 1D (h) (antagonist radioligand) (Homo sapiens, UniProt P25100); assay: biochemical; details: read-out: Binding / ================================================= / % Inhibition of Control Specific Binding
T7 construct: gene ADRA1D

[9] = molecular target: T8, V1a (h) (agonist radioligand) (Homo sapiens, UniProt P37288); assay: biochemical; details: read-out: Binding / ================================================= / % Inhibition of Control Specific Binding
T8 construct: gene AVPR1A

[10] = molecular target: T9, M1 (h) (antagonist radioligand) (Homo sapiens, UniProt P11229); assay: biochemical; details: read-out: Binding / ================================================= / % Inhibition of Control Specific Binding
T9 construct: gene CHRM1

[11] = molecular target: T10, GABAA1 (h) (alpha 1,beta 2,gamma 2) (agonist radioligand) (Homo sapiens, UniProt P14867+P47870); assay: biochemical; details: read-out: Binding / ================================================= / % Inhibition of Control Specific Binding
T10 construct: gene GABRA1

[12] = molecular target: T11, NK1 (h) (agonist radioligand) (Homo sapiens, UniProt P25103); assay: biochemical; details: read-out: Binding / ================================================= / % Inhibition of Control Specific Binding
T11 construct: gene TACR1

[13] = molecular target: T12, H2 (h) (antagonist radioligand) (Homo sapiens, UniProt P25021); assay: biochemical; details: read-out: Binding / ================================================= / % Inhibition of Control Specific Binding
T12 construct: gene HRH2

[14] = molecular target: T13, alpha 1B (h) (antagonist radioligand) (Homo sapiens, UniProt P35368); assay: biochemical; details: read-out: Binding / ================================================= / % Inhibition of Control Specific Binding
T13 construct: gene ADRA1B

[15] = molecular target: T14, M4 (h) (antagonist radioligand) (Homo sapiens, UniProt P08173); assay: biochemical; details: read-out: Binding / ================================================= / % Inhibition of Control Specific Binding
T14 construct: gene CHRM4

[16] = molecular target: T15, Y1 (h) (agonist radioligand) (Homo sapiens, UniProt P25929); assay: biochemical; details: read-out: Binding / ================================================= / % Inhibition of Control Specific Binding
T15 construct: gene NPY1R

[17] = molecular target: T16, alpha 2B (h) (antagonist radioligand) (Homo sapiens, UniProt P18089); assay: biochemical; details: read-out: Binding / ================================================= / % Inhibition of Control Specific Binding
T16 construct: gene ADRA2B

[18] = molecular target: T17, mGluR5 (h) (agonist radioligand) (Homo sapiens, UniProt P41594); assay: biochemical; details: read-out: Binding / ================================================= / % Inhibition of Control Specific Binding
T17 construct: gene GRM5

[19] = molecular target: T18, CCK2 (CCKB) (h) (agonist radioligand) (Homo sapiens, UniProt P32239); assay: biochemical; details: read-out: Binding / ================================================= / % Inhibition of Control Specific Binding
T18 construct: gene CCKBR

[20] = molecular target: CCR1 (h) (agonist radioligand) (Homo sapiens, UniProt P32246); assay: biochemical; details: read-out: Binding / ================================================= / % Inhibition of Control Specific Binding
[21] = molecular target: T19, B2 (h) (agonist radioligand) (Homo sapiens, UniProt P30411); assay: biochemical; details: read-out: Binding / ================================================= / % Inhibition of Control Specific Binding
T19 construct: gene BDKRB2

[22] = molecular target: T20, 5-HT1A (h) (agonist radioligand) (Homo sapiens, UniProt P08908); assay: biochemical; details: read-out: Binding / ================================================= / % Inhibition of Control Specific Binding
T20 construct: gene HTR1A

[23] = molecular target: T21, PPARgamma h) (agonist radioligand) (Homo sapiens, UniProt P37231); assay: biochemical; details: read-out: Binding / ================================================= / % Inhibition of Control Specific Binding
T21 construct: gene PPARG

[24] = molecular target: T22, 5-HT transporter (h) (antagonist radioligand) (Homo sapiens, UniProt P31645); assay: biochemical; details: read-out: Binding / ================================================= / % Inhibition of Control Specific Binding
T22 construct: gene SLC6A4

[25] = molecular target: T23, 5-HT1B (h) (antagonist radioligand) (Homo sapiens, UniProt P28222); assay: biochemical; details: read-out: Binding / ================================================= / % Inhibition of Control Specific Binding
T23 construct: gene HTR1B

[26] = molecular target: T24, MC4 (h) (agonist radioligand) (Homo sapiens, UniProt P32245); assay: biochemical; details: read-out: Binding / ================================================= / % Inhibition of Control Specific Binding
T24 construct: gene MC4R

[27] = molecular target: T25, ETA (h) (agonist radioligand) (Homo sapiens, UniProt P25101); assay: biochemical; details: read-out: Binding / ================================================= / % Inhibition of Control Specific Binding
T25 construct: gene EDNRA

[28] = molecular target: T26, mu (MOP) (h) (agonist radioligand) (Homo sapiens, UniProt P35372); assay: biochemical; details: read-out: Binding / ================================================= / % Inhibition of Control Specific Binding
T26 construct: gene OPRM1

PPARγ = molecular target: T27, PPARγ (Homo sapiens, UniProt P37231); assay: X-ray cocrystal structure ([…] Å); TR-FRET competitive binding
T27 construct: gene PPARG; L232-Y505 of UniProt entry P37231-2

PI3Kγ = PI3Kγ (Homo sapiens, UniProt P48736); assay: X-ray cocrystal structure ([…] Å); purified kinase assay IC50; type: biochemical; design: gene PIK3CG; S144-A1102

T13 sequence (P35368 whole entry): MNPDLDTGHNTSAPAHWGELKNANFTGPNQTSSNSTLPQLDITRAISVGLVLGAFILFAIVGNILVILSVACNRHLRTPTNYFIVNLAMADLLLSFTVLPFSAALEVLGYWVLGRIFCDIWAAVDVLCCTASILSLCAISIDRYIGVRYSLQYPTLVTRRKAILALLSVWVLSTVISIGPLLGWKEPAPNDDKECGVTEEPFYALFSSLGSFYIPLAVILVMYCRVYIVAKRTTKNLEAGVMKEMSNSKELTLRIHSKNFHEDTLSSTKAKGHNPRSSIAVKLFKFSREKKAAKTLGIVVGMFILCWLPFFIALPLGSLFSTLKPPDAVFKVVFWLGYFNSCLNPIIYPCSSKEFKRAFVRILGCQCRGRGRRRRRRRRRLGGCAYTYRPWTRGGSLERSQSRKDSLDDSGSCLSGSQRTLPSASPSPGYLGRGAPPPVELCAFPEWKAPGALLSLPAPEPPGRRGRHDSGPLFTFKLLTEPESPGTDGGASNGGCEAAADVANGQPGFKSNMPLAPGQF
T27 sequence (P37231 232-505): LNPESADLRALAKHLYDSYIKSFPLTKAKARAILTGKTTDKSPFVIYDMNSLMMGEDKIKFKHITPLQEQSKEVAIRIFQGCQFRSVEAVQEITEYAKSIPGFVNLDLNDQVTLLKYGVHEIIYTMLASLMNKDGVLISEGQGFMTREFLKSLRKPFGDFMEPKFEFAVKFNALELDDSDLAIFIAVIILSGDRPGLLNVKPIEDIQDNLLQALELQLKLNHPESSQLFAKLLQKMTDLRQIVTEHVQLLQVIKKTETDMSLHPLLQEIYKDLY
Sequence of AR(h) (agonist radioligand) (P10275 whole entry): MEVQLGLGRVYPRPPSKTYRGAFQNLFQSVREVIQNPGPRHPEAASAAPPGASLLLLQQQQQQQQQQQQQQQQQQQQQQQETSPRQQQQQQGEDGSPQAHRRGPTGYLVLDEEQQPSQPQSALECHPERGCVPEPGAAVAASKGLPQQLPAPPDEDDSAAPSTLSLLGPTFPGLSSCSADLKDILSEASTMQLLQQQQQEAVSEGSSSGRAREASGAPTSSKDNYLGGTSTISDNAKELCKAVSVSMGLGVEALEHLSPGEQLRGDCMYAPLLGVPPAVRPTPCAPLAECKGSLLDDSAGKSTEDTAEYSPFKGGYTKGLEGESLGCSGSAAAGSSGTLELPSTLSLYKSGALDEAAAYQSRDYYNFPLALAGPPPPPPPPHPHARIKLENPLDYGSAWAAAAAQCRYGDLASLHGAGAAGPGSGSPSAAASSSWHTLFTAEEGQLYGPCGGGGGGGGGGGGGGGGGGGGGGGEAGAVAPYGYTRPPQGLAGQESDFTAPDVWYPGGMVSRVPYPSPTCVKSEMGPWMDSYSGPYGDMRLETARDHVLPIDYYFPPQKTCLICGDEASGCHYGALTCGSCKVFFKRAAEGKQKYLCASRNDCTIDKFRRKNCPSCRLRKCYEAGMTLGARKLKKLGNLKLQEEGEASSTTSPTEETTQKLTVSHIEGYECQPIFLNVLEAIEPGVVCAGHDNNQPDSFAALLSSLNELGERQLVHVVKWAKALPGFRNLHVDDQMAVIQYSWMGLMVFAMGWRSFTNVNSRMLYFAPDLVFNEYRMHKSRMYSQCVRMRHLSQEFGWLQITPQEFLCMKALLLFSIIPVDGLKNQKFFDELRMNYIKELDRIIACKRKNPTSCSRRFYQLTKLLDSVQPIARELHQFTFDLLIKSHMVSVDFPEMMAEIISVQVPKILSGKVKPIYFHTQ
T15 sequence (P25929 whole entry): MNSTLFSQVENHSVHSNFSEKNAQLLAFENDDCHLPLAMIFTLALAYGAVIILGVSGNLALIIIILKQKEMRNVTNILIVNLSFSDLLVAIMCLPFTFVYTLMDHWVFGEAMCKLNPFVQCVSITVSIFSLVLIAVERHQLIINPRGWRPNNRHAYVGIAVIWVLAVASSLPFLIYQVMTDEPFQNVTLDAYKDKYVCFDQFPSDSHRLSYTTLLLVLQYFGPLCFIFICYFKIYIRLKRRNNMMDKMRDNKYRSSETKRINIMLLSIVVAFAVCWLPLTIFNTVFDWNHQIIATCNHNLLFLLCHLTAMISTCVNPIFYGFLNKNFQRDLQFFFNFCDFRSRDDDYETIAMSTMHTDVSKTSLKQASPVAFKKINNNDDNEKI
T18 sequence (P32239 whole entry): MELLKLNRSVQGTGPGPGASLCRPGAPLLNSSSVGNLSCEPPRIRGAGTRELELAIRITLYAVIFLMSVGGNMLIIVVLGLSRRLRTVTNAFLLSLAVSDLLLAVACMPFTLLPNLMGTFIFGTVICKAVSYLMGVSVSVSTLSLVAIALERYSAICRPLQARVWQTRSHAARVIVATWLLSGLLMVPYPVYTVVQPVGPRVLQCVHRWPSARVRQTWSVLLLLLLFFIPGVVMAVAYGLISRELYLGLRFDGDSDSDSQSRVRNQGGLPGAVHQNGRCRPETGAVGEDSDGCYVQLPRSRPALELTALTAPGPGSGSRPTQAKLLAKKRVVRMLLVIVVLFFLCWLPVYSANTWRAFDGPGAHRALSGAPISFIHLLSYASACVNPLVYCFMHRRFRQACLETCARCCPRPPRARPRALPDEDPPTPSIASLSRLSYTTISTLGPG
T25 sequence (P25101 whole entry): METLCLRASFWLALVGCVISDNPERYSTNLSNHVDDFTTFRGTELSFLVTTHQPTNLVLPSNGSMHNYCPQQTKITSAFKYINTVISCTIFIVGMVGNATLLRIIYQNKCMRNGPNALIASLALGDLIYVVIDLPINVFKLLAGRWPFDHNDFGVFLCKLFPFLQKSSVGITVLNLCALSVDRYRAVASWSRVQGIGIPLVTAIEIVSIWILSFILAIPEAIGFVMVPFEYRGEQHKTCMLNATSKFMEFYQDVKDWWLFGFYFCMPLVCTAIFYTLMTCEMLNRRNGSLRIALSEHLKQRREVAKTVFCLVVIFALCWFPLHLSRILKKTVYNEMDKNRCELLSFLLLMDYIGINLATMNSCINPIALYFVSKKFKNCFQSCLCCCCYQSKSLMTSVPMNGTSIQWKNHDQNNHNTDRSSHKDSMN
T7 sequence (P25100 whole entry): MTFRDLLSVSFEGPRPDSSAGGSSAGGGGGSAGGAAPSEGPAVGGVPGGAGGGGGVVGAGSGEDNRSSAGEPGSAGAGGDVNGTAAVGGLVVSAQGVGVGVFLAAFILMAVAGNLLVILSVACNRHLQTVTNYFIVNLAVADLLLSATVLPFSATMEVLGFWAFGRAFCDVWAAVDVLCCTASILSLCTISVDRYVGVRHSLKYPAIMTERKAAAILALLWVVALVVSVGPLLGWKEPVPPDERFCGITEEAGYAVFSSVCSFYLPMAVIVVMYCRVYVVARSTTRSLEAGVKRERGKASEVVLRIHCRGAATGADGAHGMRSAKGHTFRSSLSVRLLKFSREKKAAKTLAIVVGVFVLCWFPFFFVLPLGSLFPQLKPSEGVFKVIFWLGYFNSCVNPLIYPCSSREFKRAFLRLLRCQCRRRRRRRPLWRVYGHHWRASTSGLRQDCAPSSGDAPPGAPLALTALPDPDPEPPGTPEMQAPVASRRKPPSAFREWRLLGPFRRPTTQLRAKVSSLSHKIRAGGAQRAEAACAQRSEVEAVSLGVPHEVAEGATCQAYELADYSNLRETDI
T5 sequence (P14416 whole entry): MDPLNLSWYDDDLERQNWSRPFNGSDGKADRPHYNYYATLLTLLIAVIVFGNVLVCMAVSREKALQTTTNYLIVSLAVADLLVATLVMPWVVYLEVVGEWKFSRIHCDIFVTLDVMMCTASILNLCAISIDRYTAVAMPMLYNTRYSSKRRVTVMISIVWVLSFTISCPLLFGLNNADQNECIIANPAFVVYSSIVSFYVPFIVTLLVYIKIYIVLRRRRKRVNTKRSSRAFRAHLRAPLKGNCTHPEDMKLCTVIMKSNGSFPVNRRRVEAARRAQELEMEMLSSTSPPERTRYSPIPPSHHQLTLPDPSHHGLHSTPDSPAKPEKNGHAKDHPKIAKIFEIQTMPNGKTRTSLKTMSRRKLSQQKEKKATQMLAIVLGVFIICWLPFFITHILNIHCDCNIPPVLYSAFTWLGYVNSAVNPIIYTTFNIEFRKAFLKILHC
T20 sequence (P08908 whole entry): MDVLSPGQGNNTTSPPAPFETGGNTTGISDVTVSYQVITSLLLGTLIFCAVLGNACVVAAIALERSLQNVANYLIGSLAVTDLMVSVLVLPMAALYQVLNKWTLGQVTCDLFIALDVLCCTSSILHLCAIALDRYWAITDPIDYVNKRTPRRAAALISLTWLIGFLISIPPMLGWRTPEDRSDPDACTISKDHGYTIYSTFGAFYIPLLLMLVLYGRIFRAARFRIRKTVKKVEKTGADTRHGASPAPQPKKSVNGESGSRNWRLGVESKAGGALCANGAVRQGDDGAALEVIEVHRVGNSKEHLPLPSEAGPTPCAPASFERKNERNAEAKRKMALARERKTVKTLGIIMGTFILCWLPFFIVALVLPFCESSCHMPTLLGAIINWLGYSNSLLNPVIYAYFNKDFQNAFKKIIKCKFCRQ
T16 sequence (P18089 whole entry): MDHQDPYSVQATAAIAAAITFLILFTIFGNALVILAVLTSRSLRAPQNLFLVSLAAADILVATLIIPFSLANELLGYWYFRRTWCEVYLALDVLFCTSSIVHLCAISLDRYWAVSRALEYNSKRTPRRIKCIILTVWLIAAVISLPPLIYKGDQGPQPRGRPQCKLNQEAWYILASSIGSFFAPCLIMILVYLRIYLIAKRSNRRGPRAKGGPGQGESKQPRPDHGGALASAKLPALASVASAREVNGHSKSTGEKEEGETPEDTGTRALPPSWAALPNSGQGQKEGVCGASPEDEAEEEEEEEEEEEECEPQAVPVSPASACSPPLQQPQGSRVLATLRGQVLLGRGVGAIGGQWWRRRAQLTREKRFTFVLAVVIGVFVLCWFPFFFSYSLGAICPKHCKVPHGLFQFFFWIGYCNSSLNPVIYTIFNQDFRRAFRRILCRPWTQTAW

`C[C@@H](Nc1ncnc2ccc(-c3cnc(Cl)c(NS(C)(=O)=O)c3)cc12)c1ccccc1` [MTX-531, (R)-N-(2-chloro-5-(4-((1-phenylethyl)amino)quinazolin-6-yl)pyridin-3-yl)methane-sulfonamide] gave an inhibition at 10 µM [1] of -1%, an inhibition at 10 µM [2] of 1% and an inhibition at 10 µM [3] of -4%. The inhibition at 10 µM [4] was 2%, the inhibition at 10 µM [5] was 19% and the inhibition at 10 µM [6] was -4%. The inhibition at 10 µM [7] was 7%, the inhibition at 10 µM [8] was 17% and the inhibition at 10 µM [9] was 2%. For the same molecule, the inhibition at 10 µM [10] was 22%, the inhibition at 10 µM [11] was -5% and the inhibition at 10 µM [12] was -5%. The inhibition at 10 µM [13] was -1%, the inhibition at 10 µM [14] was 1% and the inhibition at 10 µM [15] was 5%. The inhibition at 10 µM [16] was 0%, the inhibition at 10 µM [17] was 2% and the inhibition at 10 µM [18] was 5%. For the same molecule, the inhibition at 10 µM [19] was -8%, the inhibition at 10 µM [20] was 0% and the inhibition at 10 µM [21] was -1%. It also gave an inhibition at 10 µM [22] of 6%, an inhibition at 10 µM [23] of 48% and an inhibition at 10 µM [24] of -1%. For the same molecule, the inhibition at 10 µM [25] was -21%, the inhibition at 10 µM [26] was 1% and the inhibition at 10 µM [27] was 1%. It also gave an inhibition at 10 µM [28] of 25%, an IC50 (PPARγ) of 2.5 µM and an IC50 (PI3Kγ) of 0.0083 µM.
